Assays:
[1] = system: mean arterial blood pressure; test: Effect on mean arterial blood pressure in conscious rats; format: in vivo; settings: 3.2 mg/kg, orally, suspended in 0.5% methyl cellulose; conscious male Sprague-Dawley rats
Protocol: ii) Effect on mean arterial blood pressure in conscious rats
Sodium [3-[[(1S)-2-(4,5-diphenyloxazol-2-yl)-2-cyclohexen-1-yl]methyl]phenoxy]acetate
Male Sprague-Dawley rats, aged 8-9 weeks, were anesthetized with diethyl ether and a polyethylene cannula filled with heparin solution was inserted into the femoral artery of the rats to measure mean blood pressure. Mean blood pressure was measured with a pressure transducer and recorded on a polygraph. Two hours after operation, the test compound suspended in 0.5% methyl cellulose was administered orally in a volume of 5 ml/kg. Oral hypotensive effect of the test compound was expressed as the maximal decrease (R max). Briefly, R max was expressed as maximal % change compared to mean blood pressure prior to the administration of the test compound.

[2] = system: human platelet aggregation induced by ADP; test: Inhibition of human platelet aggregation induced by ADP; format: cell-based; settings: 3.2 × 10^-7 M, platelet rich plasma, ADP 2.5 μM, mean ± S.E.
Protocol: i) Inhibition of human platelet aggregation induced by ADP
Isomer C obtained in Example 2.
Human blood was obtained from healthy volunteers and mixed with 1/10 volume of 3.8% sodium citrate, pH 7.4. The citrate blood was centrifuged at 150×g for 10 minutes and the platelet rich plasma (PRP) was removed. The remaining blood was centrifuged for a further 10 minutes at 1500×g to prepare the platelet poor plasma (PPP), which was used as a reference for platelet aggregation. Aggregation studies were carried out using HEMATRACER 801 (NBS, Japan), a 8 channel aggregometer. 25 μl sample solution and 225 μl of PRP were mixed and stirred at 1000 rpm for 2 minutes at 37° C. Aggregation was induced by ADP solution at the final concentration of 2.5 μM.

Structure (SMILES)	R max (%): maximal % change (decrease) in mean blood pressure compared to that prior to administration [1] [%]	inhibition at 0.32 µM [2] [%]
O=C(O)COc1cccc(C[C@@H]2CCCC=C2c2nc(-c3ccccc3)c(-c3ccccc3)o2)c1 [(+)-Sodium [3-[[(1S)-2-(4,5-diphenyloxazol-2-yl)-2-cyclohexen-1-yl]methyl]phenoxy] acetate]	31.3	
O=C(O)COc1cccc(CC2CCCCC2c2nc(-c3ccccc3)c(-c3ccccc3)o2)c1 (single isomer, unassigned) [Isomer C, cis- or trans-1-[(3-carboxymethoxyphenyl)methyl]-2-(4,5-diphenyloxazol-2-yl)cyclohexane]		100 ± 0.4

— patent publication US6025375A, “4,5-diaryloxazole derivatives” (Fujisawa Pharmaceutical Co., Ltd., priority 1993, dated 2000)
